Measurements reported in patent US8796328B2, “TRPV1 antagonists” (AbbVie Inc., priority 2012, dated 2014).
Read-outs that look alike come from different tables or passages of the source.

Columns and labels:
[1] = biological target: T1, human TRPV1 receptor (hTRPV1) (Homo sapiens (Human), UniProt Q8NER1); assay: Acid activation assay (pH 5.0, FLIPR intracellular Ca2+); type: cell-based; settings: 37.5 μM compound; for human TRPV1 H+ (max % remain): Table 2, percentage of maximal pH 5.0-induced response; for remaining activity at 37.5 µM: percentage of the maximal pH 5.0-induced response remaining, read-out: hTRPV1 H+ (max % remain)
[2] = test system: rats; assay: Rat tail immersion assay (noxious thermosensation, 55° C. water bath); type: in vivo; settings: rat, relative to vehicle
Procedure: Compounds were tested for their effects on noxious thermosensation using the tail immersion assay. Testing was performed one hour following oral administration of 100 μmol/kg of the compound in 10% ethanol/20% Tween-80/70% PEG-400 (2 mL/kg). Mophine (6 mg/kg) was administered interperitoneally (i.p.) using saline (2 mL/kg) as the vehicle. For testing, a circulating water bath was heated to 55° C. Thirty to sixty minutes post dosing, the rats were handled for a few seconds to calm them down and then cupped with their back against the testers hand at a slight angle with head facing away from tester. With rat in one hand and a 0.01 second stopwatch in the other hand, the tail was quickly immersed 6-8 cm in water bath or to a distance leaving 2-3 cm of tail out of water. The timer was started simultaneously. When the rat flinched or attempted withdrawal, timer was immediately stopped and the rat's tail was quickly removed from water bath. This response latency (in seconds) was recorded. Process was repeated 3 times with 3-4 minutes between readings for a final average.
For a given example, a percent increase in the average response latency (in seconds) for tail withdrawal relative to a vehicle control was determined % increase=[(tc−tv)/tv]×100%
tc=response time (in seconds) with oral dosing of compounds
tv=response time (in seconds) with oral dosing of vehicle
The % increases in tail withdrawal latency relative to vehicle control are divided into the following categories: […]

[3] = biological target: T1, human TRPV1 receptor (hTRPV1); assay: Capsaicin activation assay (FLIPR intracellular Ca2+); type: cell-based
Method in brief: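 Recombinant HEK293 cells stably expressing hTRPV1, Calcium-4 dye loaded 90–120 min at room temperature, were preincubated with compound (12-point, one-third-log) for 3 min before capsaicin challenge. Peak FLIPR fluorescence minus baseline was normalised to capsaicin control response; IC50 from four-parameter logistic fit.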

[4] = oral 100 μmol/kg, one hour post dosing
[5] = inhibition of capsaicin-induced intracellular Ca2+ increase, compounds added 3 minutes prior to capsaicin, read-out: hTRPV1 cap. IC50

T1 sequence (Q8NER1 whole entry): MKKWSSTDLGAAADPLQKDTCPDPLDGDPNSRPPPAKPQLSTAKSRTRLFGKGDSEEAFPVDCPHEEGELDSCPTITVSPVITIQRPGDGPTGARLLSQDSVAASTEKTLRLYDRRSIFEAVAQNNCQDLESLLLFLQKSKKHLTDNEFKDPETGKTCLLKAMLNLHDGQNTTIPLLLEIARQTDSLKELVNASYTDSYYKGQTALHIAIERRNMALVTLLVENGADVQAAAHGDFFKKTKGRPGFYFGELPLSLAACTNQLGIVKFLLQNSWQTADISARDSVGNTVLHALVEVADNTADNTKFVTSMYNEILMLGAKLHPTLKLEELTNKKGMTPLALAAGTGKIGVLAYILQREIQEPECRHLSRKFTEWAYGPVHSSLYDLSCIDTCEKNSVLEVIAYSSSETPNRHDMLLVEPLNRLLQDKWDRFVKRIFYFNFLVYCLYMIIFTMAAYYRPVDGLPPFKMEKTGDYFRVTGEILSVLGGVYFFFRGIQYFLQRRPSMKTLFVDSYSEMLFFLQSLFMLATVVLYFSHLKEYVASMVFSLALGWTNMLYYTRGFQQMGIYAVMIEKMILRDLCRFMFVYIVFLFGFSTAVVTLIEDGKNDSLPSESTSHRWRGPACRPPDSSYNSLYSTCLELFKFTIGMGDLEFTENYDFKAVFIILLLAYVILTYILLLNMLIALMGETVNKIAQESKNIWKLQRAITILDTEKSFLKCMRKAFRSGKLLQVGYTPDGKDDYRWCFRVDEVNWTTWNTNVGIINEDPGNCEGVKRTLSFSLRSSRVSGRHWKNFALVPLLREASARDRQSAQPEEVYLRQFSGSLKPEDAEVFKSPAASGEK

| SMILES | human TRPV1 H+ (max % remain) [1] | % Increase in Tail Withdrawal Latency [2, 4] | IC50 [3, 5] | remaining activity at 37.5 µM [1] | also measured |
| --- | --- | --- | --- | --- | --- |
| CC(C)(C)c1ccc(Nc2ncnc3cc(-c4ncccc4C(F)(F)F)ccc23)cc1 [B, reference compound] | 1% | +++ (greater than or equal to 25% increase) |  |  |  |
| Cc1cccnc1N1CC=C(C(=O)Nc2ccc(S(=O)(=O)C(F)(F)F)cc2)CC1 [E, reference compound] | 2% | +++ (greater than or equal to 25% increase) |  |  |  |
| CC(C)(C)c1ccc2c(c1)CC[C@H]2NC(=O)Nc1cccc2[nH]cnc12 [C, reference compound] | 1% | +++ (greater than or equal to 25% increase) |  |  | IC50 ([3]; Table 2, capsaicin-induced intracellular Ca2+ increase, read-out: human TRPV1 capsaicin IC50): 35 nM |
| Cc1nc(Nc2cccc3c2C[C@H](O)CC3)oc1-c1ccc(C(F)(F)F)cc1 [D, reference compound] | 3% | +++ (greater than or equal to 25% increase) |  |  |  |
| CN1CC[C@]23c4c5ccc(O)c4O[C@H]2[C@@H](O)C=C[C@H]3[C@H]1C5 [Morphine] |  |  |  |  | % Increase in Tail Withdrawal Latency ([2]; morphine 6 mg/kg i.p. in saline): +++ (greater than or equal to 25% increase) |
| CC(=O)Nc1nc2c(Oc3cc(-c4ccc(C(F)(F)F)cc4)ncn3)cccc2s1 [A, reference compound] | 10% | +++ (greater than or equal to 25% increase) |  |  |  |
| C[C@@]1(CF)C[C@@H](NC(=O)NCc2ccc(NS(C)(=O)=O)c(F)c2)c2ccc(Cl)cc2O1 [Example 39, N-{4-[({[(2S,4R)-7-chloro-2-(fluoromethyl)-2-methyl-3,4-dihydro-2H-chromen-4-yl]carbamoyl}amino)methyl]-2-fluorophenyl}methanesulfonamide] |  |  | 615 nM | 41% |  |
| CC1(C)C[C@@H](NC(=O)NCc2ccc(NS(C)(=O)=O)c(F)c2)c2cc(F)ccc2O1 [Example 22, N-{2-fluoro-4-[({[(4R)-6-fluoro-2,2-dimethyl-3,4-dihydro-2H-chromen-4-yl]carbamoyl}amino)methyl]phenyl}methanesulfonamide] |  |  | 7590 nM | 71% |  |
| CS(=O)(=O)Nc1ccc(CNC(=O)N[C@@H]2CCc3cc(C(F)(F)F)ccc32)cc1F [Example 5, N-{2-fluoro-4-[({[(1R)-5-(trifluoromethyl)-2,3-dihydro-1H-inden-1-yl]carbamoyl}amino)methyl]phenyl}methanesulfonamide] |  |  | 325 nM | 88% |  |
| C[C@@]1(CF)C[C@@H](NC(=O)NCc2ccc(NS(C)(=O)=O)c(F)c2)c2ccc(C(F)(F)F)cc2O1 [Example 37, N-{2-fluoro-4-[({[(2S,4R)-2-(fluoromethyl)-2-methyl-7-(trifluoromethyl)-3,4-dihydro-2H-chromen-4-yl]carbamoyl}amino)methyl]phenyl}methanesulfonamide] |  |  | 256 nM | 64% |  |
| CCC1(CC)C[C@@H](NC(=O)NCc2ccc(NS(C)(=O)=O)c(F)c2)c2ccc(OC(F)(F)F)cc2O1 [Example 19, N-{4-[({[(4R)-2,2-diethyl-7-(trifluoromethoxy)-3,4-dihydro-2H-chromen-4-yl]carbamoyl}amino)methyl]-2-fluorophenyl}methanesulfonamide] |  |  | 466 nM | 82% |  |
